Laboratory results published in patent US20150018311A1, “THERAPEUTIC BORON-CONTAINING COMPOUNDS” (priority 2012, published 2015).

What was measured:
Test in all cases: Growth in liquid media in presence of test compound
Format in all cases: cell-based
[1] = system: Pseudomonas aeruginosa (ATCC 27853)
[2] = system: Streptococcus pyogenes (ATCC 19615)
[3] = system: Candida albicans (ATCC 90028)
[4] = system: Escherichia coli (ATCC 25922)
[5] = system: Staphylococcus aureus (ATCC 25923)
[6] = system: Mycobacterium tuberculosis (H37Rv)

`Cl.N[C@@H](Cc1ccccc1)C(=O)NC[C@@H](Cc1ccc(F)cc1)B(O)O` [Compound 50] was tested, and the “Growth in the presence of test compound, P. aeruginosa” value (shortened to “Growth … P. aeruginosa”) ([1]; 5 mg/L) was “+”, the “Growth … P. aeruginosa” value ([1]; 50 mg/L) was “+” and the “Growth … P. aeruginosa” value ([1]; 500 mg/L) was “±”. The “Growth in the presence of test compound, S. pyogenes” value (“Growth in the presence … S. pyogenes” for short) ([2]; 5 mg/L) was “+”, the “Growth in the presence … S. pyogenes” value ([2]; 50 mg/L) was “+” and the “Growth in the presence … S. pyogenes” value ([2]; 500 mg/L) was “−”. For the same compound, the “Growth in the presence of test compound, C. albicans” value (from here on “Growth in the presence … C. albicans”) ([3]; 5 mg/L) was “+”, the “Growth in the presence … C. albicans” value ([3]; 50 mg/L) was “+” and the “Growth in the presence … C. albicans” value ([3]; 500 mg/L) was “+”. The “Growth in the presence of test compound, E. coli” value (from here on “Growth in the presence … E. coli”) ([4]; 5 mg/L) was “+”, the “Growth in the presence … E. coli” value ([4]; 50 mg/L) was “+” and the “Growth in the presence … E. coli” value ([4]; 500 mg/L) was “−”. The “Growth in the presence of test compound, S. aureus” value (from here on “Growth in the presence … S. aureus”) ([5]; 5 mg/L) was “+”, the “Growth in the presence … S. aureus” value ([5]; 50 mg/L) was “+” and the “Growth in the presence … S. aureus” value ([5]; 500 mg/L) was “−”. The “Growth in the presence of test compound, M. tuberculosis” value (“Growth … M. tuberculosis” below) ([6]; 5 mg/L) was “±”, the “Growth … M. tuberculosis” value ([6]; 50 mg/L) was “−” and the “Growth … M. tuberculosis” value ([6]; 500 mg/L) was “−”.
With `CC1(C)C2CC3OB(C(CNC(=O)C(N)CCCCN)Cc4ccc(F)cc4)OC3(C)C1C2.Cl.Cl` (stereo not drawn) [Compound 51] the “Growth … P. aeruginosa” value ([1]; 5 mg/L) was “+”, the “Growth … P. aeruginosa” value ([1]; 50 mg/L) was “+” and the “Growth … P. aeruginosa” value ([1]; 500 mg/L) was “−”. For the same compound, the “Growth in the presence … S. pyogenes” value ([2]; 5 mg/L) was “+”, the “Growth in the presence … S. pyogenes” value ([2]; 50 mg/L) was “+” and the “Growth in the presence … S. pyogenes” value ([2]; 500 mg/L) was “−”. For the same compound, the “Growth in the presence … C. albicans” value ([3]; 5 mg/L) was “+”, the “Growth in the presence … C. albicans” value ([3]; 50 mg/L) was “+” and the “Growth in the presence … C. albicans” value ([3]; 500 mg/L) was “−”. For the same compound, the “Growth in the presence … E. coli” value ([4]; 5 mg/L) was “+”, the “Growth in the presence … E. coli” value ([4]; 50 mg/L) was “+” and the “Growth in the presence … E. coli” value ([4]; 500 mg/L) was “−”. The “Growth in the presence … S. aureus” value ([5]; 5 mg/L) was “+”, the “Growth in the presence … S. aureus” value ([5]; 50 mg/L) was “+” and the “Growth in the presence … S. aureus” value ([5]; 500 mg/L) was “−”. The “Growth … M. tuberculosis” value ([6]; 5 mg/L) was “+”, the “Growth … M. tuberculosis” value ([6]; 50 mg/L) was “−” and the “Growth … M. tuberculosis” value ([6]; 500 mg/L) was “−”.
`Cl.Cl.NCCCC[C@H](N)C(=O)NC[C@@H](Cc1ccc(OC(F)(F)F)cc1)B(O)O` [Compound 52] was tested, and the “Growth … P. aeruginosa” value ([1]; 5 mg/L) was “+”, the “Growth … P. aeruginosa” value ([1]; 50 mg/L) was “+” and the “Growth … P. aeruginosa” value ([1]; 500 mg/L) was “+”. The “Growth in the presence … S. pyogenes” value ([2]; 5 mg/L) was “+”, the “Growth in the presence … S. pyogenes” value ([2]; 50 mg/L) was “+” and the “Growth in the presence … S. pyogenes” value ([2]; 500 mg/L) was “±”. The “Growth in the presence … C. albicans” value ([3]; 5 mg/L) was “+”, the “Growth in the presence … C. albicans” value ([3]; 50 mg/L) was “+” and the “Growth in the presence … C. albicans” value ([3]; 500 mg/L) was “−”. The “Growth in the presence … E. coli” value ([4]; 5 mg/L) was “+”, the “Growth in the presence … E. coli” value ([4]; 50 mg/L) was “+” and the “Growth in the presence … E. coli” value ([4]; 500 mg/L) was “+”. For the same compound, the “Growth in the presence … S. aureus” value ([5]; 5 mg/L) was “+”, the “Growth in the presence … S. aureus” value ([5]; 50 mg/L) was “+” and the “Growth in the presence … S. aureus” value ([5]; 500 mg/L) was “+”. The “Growth … M. tuberculosis” value ([6]; 5 mg/L) was “±”, the “Growth … M. tuberculosis” value ([6]; 50 mg/L) was “±” and the “Growth … M. tuberculosis” value ([6]; 500 mg/L) was “−”.
`CC1(C)C2CC3OB(C(CNC(=O)C(N)CCCCN)Cc4ccc(OC(F)(F)F)cc4)OC3(C)C1C2.Cl.Cl` (stereo not drawn) [Compound 53] was tested, and the “Growth … P. aeruginosa” value ([1]; 5 mg/L) was “+”, the “Growth … P. aeruginosa” value ([1]; 50 mg/L) was “+” and the “Growth … P. aeruginosa” value ([1]; 500 mg/L) was “−”. The “Growth in the presence … S. pyogenes” value ([2]; 5 mg/L) was “+”, the “Growth in the presence … S. pyogenes” value ([2]; 50 mg/L) was “+” and the “Growth in the presence … S. pyogenes” value ([2]; 500 mg/L) was “−”. The “Growth in the presence … C. albicans” value ([3]; 5 mg/L) was “+”, the “Growth in the presence … C. albicans” value ([3]; 50 mg/L) was “+” and the “Growth in the presence … C. albicans” value ([3]; 500 mg/L) was “−”. The “Growth in the presence … E. coli” value ([4]; 5 mg/L) was “+”, the “Growth in the presence … E. coli” value ([4]; 50 mg/L) was “+” and the “Growth in the presence … E. coli” value ([4]; 500 mg/L) was “+”. For the same compound, the “Growth in the presence … S. aureus” value ([5]; 5 mg/L) was “+”, the “Growth in the presence … S. aureus” value ([5]; 50 mg/L) was “+” and the “Growth in the presence … S. aureus” value ([5]; 500 mg/L) was “+”. The “Growth … M. tuberculosis” value ([6]; 5 mg/L) was “±”, the “Growth … M. tuberculosis” value ([6]; 50 mg/L) was “−” and the “Growth … M. tuberculosis” value ([6]; 500 mg/L) was “−”.
For `CC1(C)C2CC3OB(CC(Cc4ccccc4)NC(=O)C(N)CCCCN)OC3(C)C1C2` (stereo not drawn) [Compound 54], the “Growth … P. aeruginosa” value ([1]; 5 mg/L) was “+”, the “Growth … P. aeruginosa” value ([1]; 50 mg/L) was “+” and the “Growth … P. aeruginosa” value ([1]; 500 mg/L) was “−”. For the same compound, the “Growth in the presence … S. pyogenes” value ([2]; 5 mg/L) was “+”, the “Growth in the presence … S. pyogenes” value ([2]; 50 mg/L) was “+” and the “Growth in the presence … S. pyogenes” value ([2]; 500 mg/L) was “−”. The “Growth in the presence … C. albicans” value ([3]; 5 mg/L) was “+”, the “Growth in the presence … C. albicans” value ([3]; 50 mg/L) was “+” and the “Growth in the presence … C. albicans” value ([3]; 500 mg/L) was “−”. For the same compound, the “Growth in the presence … E. coli” value ([4]; 5 mg/L) was “+”, the “Growth in the presence … E. coli” value ([4]; 50 mg/L) was “+” and the “Growth in the presence … E. coli” value ([4]; 500 mg/L) was “−”. For the same compound, the “Growth in the presence … S. aureus” value ([5]; 5 mg/L) was “+”, the “Growth in the presence … S. aureus” value ([5]; 50 mg/L) was “+” and the “Growth in the presence … S. aureus” value ([5]; 500 mg/L) was “−”. The “Growth … M. tuberculosis” value ([6]; 5 mg/L) was “+”, the “Growth … M. tuberculosis” value ([6]; 50 mg/L) was “+” and the “Growth … M. tuberculosis” value ([6]; 500 mg/L) was “−”.
`CC1(C)C2CC3OB([C@@H](CNC(=O)[C@@H](N)Cc4ccccc4)Cc4ccc(OC(F)(F)F)cc4)O[C@]3(C)C1C2.Cl` (stereo partly drawn) [Compound 55] was tested, and the “Growth … P. aeruginosa” value ([1]; 5 mg/L) was “+”, the “Growth … P. aeruginosa” value ([1]; 50 mg/L) was “+” and the “Growth … P. aeruginosa” value ([1]; 500 mg/L) was “+”. The “Growth in the presence … S. pyogenes” value ([2]; 5 mg/L) was “+”, the “Growth in the presence … S. pyogenes” value ([2]; 50 mg/L) was “±” and the “Growth in the presence … S. pyogenes” value ([2]; 500 mg/L) was “+”. For the same compound, the “Growth in the presence … C. albicans” value ([3]; 5 mg/L) was “+”, the “Growth in the presence … C. albicans” value ([3]; 50 mg/L) was “+” and the “Growth in the presence … C. albicans” value ([3]; 500 mg/L) was “±”. For the same compound, the “Growth in the presence … E. coli” value ([4]; 5 mg/L) was “+”, the “Growth in the presence … E. coli” value ([4]; 50 mg/L) was “+” and the “Growth in the presence … E. coli” value ([4]; 500 mg/L) was “+”. For the same compound, the “Growth in the presence … S. aureus” value ([5]; 5 mg/L) was “+”, the “Growth in the presence … S. aureus” value ([5]; 50 mg/L) was “±” and the “Growth in the presence … S. aureus” value ([5]; 500 mg/L) was “+”. For the same compound, the “Growth … M. tuberculosis” value ([6]; 5 mg/L) was “−”, the “Growth … M. tuberculosis” value ([6]; 50 mg/L) was “−” and the “Growth … M. tuberculosis” value ([6]; 500 mg/L) was “−”.
